Test results published in paper PMC12802172, “Mechanistic insights into dual-active liver and blood-stage antiplasmodials” (mBio, 2025).
Read-outs that look alike come from different tables or passages of the source.

Assays:
[1] = target: T1, P. falciparum cytoplasmic isoleucyl-tRNA synthetase (PfcIRS) (Plasmodium falciparum, UniProt Q8IDZ9); experiment: AMP-Glo enzymatic assay with recombinant PfcIRS; format: biochemical
T1 construct: gene PF3D7_1332900; full-length PfcIRS (1-1273), C-terminal TEV-cleavable His10-FLAG tag removed, Sf9 expressed
T1 sequence (Q8IDZ9 entry or part of it): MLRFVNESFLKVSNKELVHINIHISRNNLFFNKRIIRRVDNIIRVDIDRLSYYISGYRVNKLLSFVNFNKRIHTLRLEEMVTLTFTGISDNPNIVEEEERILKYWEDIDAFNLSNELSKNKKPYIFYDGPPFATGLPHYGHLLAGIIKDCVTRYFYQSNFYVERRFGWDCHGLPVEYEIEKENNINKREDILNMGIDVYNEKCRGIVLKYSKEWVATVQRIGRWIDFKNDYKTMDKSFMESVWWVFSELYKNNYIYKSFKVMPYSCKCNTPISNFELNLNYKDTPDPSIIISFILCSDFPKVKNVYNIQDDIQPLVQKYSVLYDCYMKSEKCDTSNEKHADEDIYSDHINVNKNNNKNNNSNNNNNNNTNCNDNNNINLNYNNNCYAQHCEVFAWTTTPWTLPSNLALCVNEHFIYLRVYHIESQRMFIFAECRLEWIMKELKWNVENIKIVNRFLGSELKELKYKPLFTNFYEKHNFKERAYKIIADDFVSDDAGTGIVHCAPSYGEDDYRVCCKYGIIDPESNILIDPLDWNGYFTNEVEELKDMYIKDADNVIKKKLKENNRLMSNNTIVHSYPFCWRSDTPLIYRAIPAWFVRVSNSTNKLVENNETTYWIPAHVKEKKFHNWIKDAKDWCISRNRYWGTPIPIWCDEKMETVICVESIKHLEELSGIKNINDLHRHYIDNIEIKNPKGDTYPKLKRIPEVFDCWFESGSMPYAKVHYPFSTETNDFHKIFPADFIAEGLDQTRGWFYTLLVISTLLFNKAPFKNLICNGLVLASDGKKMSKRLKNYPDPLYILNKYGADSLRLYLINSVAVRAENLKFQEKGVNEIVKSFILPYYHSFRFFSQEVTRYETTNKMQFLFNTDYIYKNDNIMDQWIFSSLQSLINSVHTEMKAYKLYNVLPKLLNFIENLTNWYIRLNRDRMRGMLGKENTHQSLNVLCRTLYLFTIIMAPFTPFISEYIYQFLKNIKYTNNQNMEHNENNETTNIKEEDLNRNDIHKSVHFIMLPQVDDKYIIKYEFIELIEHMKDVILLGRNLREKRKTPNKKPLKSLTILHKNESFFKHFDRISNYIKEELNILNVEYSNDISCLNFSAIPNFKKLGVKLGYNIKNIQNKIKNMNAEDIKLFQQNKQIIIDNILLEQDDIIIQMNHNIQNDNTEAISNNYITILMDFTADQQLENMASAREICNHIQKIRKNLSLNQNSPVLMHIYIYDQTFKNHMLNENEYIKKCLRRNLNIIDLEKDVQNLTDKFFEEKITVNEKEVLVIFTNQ

[2] = tested on: T2, Plasmodium falciparum Cam3.II; experiment: microbe, parasite or virus in culture; design: species or system P. falciparum in human erythrocytes; asexual blood-stage growth inhibition, synchronized ring-stage parasites, SYBR Green I fluorescence; settings: Erythrocyte, 72 h, read-out: P. falciparum asexual blood stage activity (IC50 uM) / Cam3.II / IC50
T2 construct: Cam3.II
Method: (§1) Compound dose-response assays were performed in flat-bottom 96-well plates. Tightly synchronized ring-stage parasites were adjusted to 1% parasitemia at 1% hematocrit and exposed to a twofold serial dilution of the compounds plated using a Tecan D300e digital dispenser. As controls, the assay plate included untreated parasites and parasites treated with 700 nM DHA only. After 72 h of incubation, parasite growth was measured by lysing the cells with a 2 × lysis buffer containing 10 mM Tris-HCl, 5 mM EDTA, 0.1% (wt/vol) saponin, and 1% (vol/vol) Triton X-100, supplemented with 2 × SYBR Green I (Molecular Probes). Fluorescence was recorded using a FluorStar Omega v5.11 plate reader. IC50 values were determined using GraphPad Prism v9, and statistical significance was assessed with a two-sided Mann-Whitney U test. Each assay was conducted in technical duplicate, with a minimum of three biological replicates, as described in the figure legends. P. falciparum parasites were cultured with fresh human erythrocytes at 3% hematocrit in RPMI 1640 medium (Gibco), supplemented with 0.5% Albumax II (Gibco), 25 mM HEPES (Sigma), 1× GlutaMAX (Gibco), and 25 μg/mL gentamicin (Gibco). The following parasite strains were used: 3D7, Dd2 (MR4, MRA-156, T. Wellems), GB4 (MR4, MRA-925, T. Wellems), UG659 (P. Rosenthal), Cam/PH0212C (R. Fairhurst), and Cam3.II/ PH0306-C (R. Fairhurst). The cultures were maintained under a controlled tri-gas atmosphere of 1% O2, 3% CO2, and 96% N2. Human erythrocytes were ethically sourced from healthy, anonymous donors through the Scottish National Blood Transfusion Service (SNBTS) or the National Health Services Blood and Transplant (NHSBT). The use of red blood cells was with approval from the University of Dundee Schools of Medicine and Life Sciences Research Ethics Committee, and the NHS Cambridgeshire Research Ethics Committee and Wellcome Sanger Institute Human Materials and Data Management Committee. Half-maximal growth inhibition concentrations were determined for the nine query compounds against chloroquine-sensitive (3D7) and multidrug-resistant (Dd2) parasites (Fig. 1B; Table S1). Compounds were further assessed against a panel of geographically diverse parasite strains, including two multidrug-resistant Cambodian isolates (resistant to artemisinin, chloroquine, and pyrimethamine) and strains from Uganda (UG659) and Ghana (GB4). […] However, a reduction in sensitivity to TCMDC-134122 was noted across all strains when compared to Dd2.

[3] = tested on: T3, Plasmodium falciparum GB4; experiment: microbe, parasite or virus in culture; design: species or system P. falciparum in human erythrocytes; asexual blood-stage growth inhibition, synchronized ring-stage parasites, SYBR Green I fluorescence; settings: Erythrocyte, 72 h, read-out: P. falciparum asexual blood stage activity (IC50 uM) / GB4 / IC50
T3 construct: GB4
Method: as §1

[4] = tested on: T4, Plasmodium falciparum CAM (PH0212C); experiment: microbe, parasite or virus in culture; design: species or system P. falciparum in human erythrocytes; asexual blood-stage growth inhibition, synchronized ring-stage parasites, SYBR Green I fluorescence; settings: Erythrocyte, 72 h, read-out: P. falciparum asexual blood stage activity (IC50 uM) / CAM (PH0212C) / IC50
T4 construct: Cam/PH0212C
Method: as §1

P. falciparum Dd2 = tested on: T5, P. falciparum Dd2; experiment: microbe, parasite or virus in culture; design: species or system P. falciparum in human erythrocytes; asexual blood-stage growth inhibition, synchronized ring-stage parasites, SYBR Green I fluorescence; settings: Plasmodium falciparum, DD2, Erythrocyte, 72 h
T5 construct: Dd2
Method: as §1

P. falciparum 3D7 = tested on: T6, P. falciparum 3D7; experiment: microbe, parasite or virus in culture; design: species or system P. falciparum in human erythrocytes; asexual blood-stage growth inhibition, synchronized ring-stage parasites, SYBR Green I fluorescence; settings: Plasmodium falciparum, 3D7, Erythrocyte, 72 h; initial laboratory strain experiment (Table S1); read-out: P. falciparum asexual blood stage activity (IC50 uM) / 3D7
T6 construct: 3D7
Method: as §1

[5] = tested on: T7, Plasmodium falciparum UG654 (UG659 in methods); experiment: microbe, parasite or virus in culture; design: species or system P. falciparum in human erythrocytes; asexual blood-stage growth inhibition, synchronized ring-stage parasites, SYBR Green I fluorescence; settings: Erythrocyte, 72 h, read-out: P. falciparum asexual blood stage activity (IC50 uM) / UG654 / IC50
T7 construct: UG659
Method: as §1

[6] = initial laboratory strain experiment (Table S1), read-out: P. falciparum asexual blood stage activity (IC50 uM) / Dd2
[7] = strain panel experiment (Table S2), read-out: P. falciparum asexual blood stage activity (IC50 uM) / Dd2 / IC50

SMILES | IC50 [1] [nM] | IC50 [2] [µM] | IC50 [3] [µM] | IC50 [4] [µM] | IC50 (P. falciparum Dd2; [6]) [µM] | IC50 (P. falciparum Dd2; [7]) [µM] | IC50 (P. falciparum 3D7) [µM] | IC50 [5] [µM]
c1ccn2c(Sc3ncnc4sccc34)ncc2c1 [TCMDC-124602] | 6590 | 0.316 | 0.651 | 0.313 | 0.45 | 0.288 | 0.502 | 0.354
CC(C)(CN)c1cc(-c2ccc(Cl)c(O)c2)c(-c2ccncc2)o1 [TCMDC-141334] |  | 0.644 | 0.974 | 0.676 | 0.414 | 0.485 | 0.446 | 0.537
Cc1cccc2[nH]c(-c3ccc(-c4cccc(NC(=O)C(C)CN5CCN(C)CC5)c4)cc3)nc12 (stereo not shown) [TCMDC-137144] |  | 1.39 | 1.94 | 1.2 | 1.4 | 1.39 | 0.912 | 2.18
Cc1cccc(C)c1CNc1cccc(-c2nc(C)c(C)[nH]2)c1 [TCMDC-133434] |  | 1.21 | 0.924 | 1.33 | 0.851 | 1.74 | 0.89 | 1.22
CCOc1ccc2nc(NC(=O)c3csnn3)sc2c1 [TCMDC-125075] |  | 0.115 | 0.16 | 0.195 | 0.206 | 0.192 | 0.144 | 0.178
COc1ccc(-n2ncc(C(=O)N3CCC4(C3)C(=O)N(c3ccccc3)c3ccccc34)c2C)cc1 (stereo not shown) [TCMDC-134122] |  | 1.78 | 1.67 | 1.25 | 0.216 | 0.394 | 0.572 | 1.17
COc1cc(-c2[nH]c(C(C)(C)CN)nc2-c2ccncc2)ccc1Br [TCMDC-140674] |  | 0.532 | 1.85 | 0.501 | 0.244 | 0.341 | 0.688 | 1.07
CC(C)(C)c1cc(Cl)cc(C(=O)Nc2cc([N+](=O)[O-])ccc2Cl)c1O [TCMDC-142214] |  | 2.78 | 3.08 | 3.8 | 3.17 | 2.88 | 3.65 | 3.07
Cc1cccc2[nH]c(-c3cccc(-c4cccc(NC(=O)CCc5c[nH]cn5)c4)c3)nc12 [TCMDC-132158] |  | 0.757 | 1.72 | 0.654 | 0.609 | 0.932 | 0.616 | 1.82
